Test results taken from patent US20260069588A1, “VEPDEGESTRANT FOR USE IN TREATING CANCER” (Arvinas Operation, Inc., priority 2022, published 2026).

Key:
[1] = Tablet performance in fed and fasted dogs; assay type: in vivo, dog; settings: 50 mg tablet QD, fed vs fasted
Experimental: For 6 days, dogs received a single 50 mg tablet QD after pre-treatment with pentagastrin. Little accumulation was observed over the course of the study. In addition, exposure in chow-fed dogs was similar to that obtained for solution formulations administered at a similar dose. To reduce the pill burden, a 100 mg tablet was developed and when tested in dogs, similar exposure was observed when dogs were dosing with a 50 mg tablet.

[2] = Preclinical PK after PO or intravenous dose; design: species or system mouse, dog, and monkey; settings: rat, in vivo
[3] = Clinical Pharmacology Study: adverse events in healthy volunteers
Text: The severity of adverse events was graded according to the National Cancer Institute Common Terminology Criteria for Adverse Events (NCI CTCAE) version 5.0.

[4] = Plasma protein binding, dog; assay type: in vitro ADME; settings: read-out: free fraction
[5] = Turnover in liver microsomes and hepatocytes; assay type: in vitro ADME; settings: across species
Text: No human unique metabolites were observed. Although it is not thought to be formed via enzymatic conversion, the epimer Compound B was formed to a limited extent in animals.

GSPT1 = GSPT1 (Homo sapiens, UniProt P15170); test: Cereblon neomorphic substrate degradation, GSPT1; assay type: cell-based; settings: in vitro
Sequence of GSPT1 (Q96SW2 whole entry partner, species assumed): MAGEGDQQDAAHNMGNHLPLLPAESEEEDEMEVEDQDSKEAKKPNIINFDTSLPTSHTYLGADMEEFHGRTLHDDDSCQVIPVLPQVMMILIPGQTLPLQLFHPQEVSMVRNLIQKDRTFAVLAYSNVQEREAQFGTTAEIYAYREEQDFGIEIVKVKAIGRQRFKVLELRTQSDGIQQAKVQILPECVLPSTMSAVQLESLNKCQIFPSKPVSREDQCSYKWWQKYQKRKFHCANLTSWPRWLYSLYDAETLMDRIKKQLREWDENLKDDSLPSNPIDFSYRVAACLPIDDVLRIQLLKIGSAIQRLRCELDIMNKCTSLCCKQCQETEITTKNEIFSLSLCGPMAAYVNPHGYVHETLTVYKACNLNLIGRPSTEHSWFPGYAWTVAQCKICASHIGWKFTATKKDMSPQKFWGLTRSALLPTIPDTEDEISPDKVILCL
Sequence of GSPT1 (Q16531 whole entry partner, species assumed): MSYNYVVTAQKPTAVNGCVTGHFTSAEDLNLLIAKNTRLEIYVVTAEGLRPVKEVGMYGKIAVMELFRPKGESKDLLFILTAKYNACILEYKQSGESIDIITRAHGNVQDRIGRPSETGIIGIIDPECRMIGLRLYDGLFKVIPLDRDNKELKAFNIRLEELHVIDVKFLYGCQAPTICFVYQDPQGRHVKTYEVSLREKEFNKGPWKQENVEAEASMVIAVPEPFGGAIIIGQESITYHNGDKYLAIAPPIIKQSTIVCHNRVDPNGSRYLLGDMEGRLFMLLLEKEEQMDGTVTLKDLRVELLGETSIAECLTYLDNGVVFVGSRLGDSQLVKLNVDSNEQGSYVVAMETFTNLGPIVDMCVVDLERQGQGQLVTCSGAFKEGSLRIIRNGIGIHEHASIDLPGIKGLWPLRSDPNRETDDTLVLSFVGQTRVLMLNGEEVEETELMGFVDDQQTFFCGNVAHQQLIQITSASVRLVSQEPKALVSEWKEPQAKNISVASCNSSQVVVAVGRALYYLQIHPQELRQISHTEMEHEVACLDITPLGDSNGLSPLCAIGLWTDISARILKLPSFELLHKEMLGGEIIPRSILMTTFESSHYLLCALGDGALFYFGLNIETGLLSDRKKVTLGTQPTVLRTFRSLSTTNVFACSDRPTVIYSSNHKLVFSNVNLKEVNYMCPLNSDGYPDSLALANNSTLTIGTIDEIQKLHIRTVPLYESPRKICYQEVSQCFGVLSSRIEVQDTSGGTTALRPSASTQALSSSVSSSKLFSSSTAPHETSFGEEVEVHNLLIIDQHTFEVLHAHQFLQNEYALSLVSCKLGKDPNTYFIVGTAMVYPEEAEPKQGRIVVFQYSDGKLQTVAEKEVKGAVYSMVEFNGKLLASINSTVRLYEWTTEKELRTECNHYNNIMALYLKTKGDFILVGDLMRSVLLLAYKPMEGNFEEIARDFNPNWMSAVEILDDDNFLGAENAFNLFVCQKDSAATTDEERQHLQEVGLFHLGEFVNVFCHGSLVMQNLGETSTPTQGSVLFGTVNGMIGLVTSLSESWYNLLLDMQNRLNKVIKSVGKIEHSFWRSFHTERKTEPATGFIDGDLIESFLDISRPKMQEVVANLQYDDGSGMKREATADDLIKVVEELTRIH
Sequence of GSPT1 (P15170 whole entry, species assumed): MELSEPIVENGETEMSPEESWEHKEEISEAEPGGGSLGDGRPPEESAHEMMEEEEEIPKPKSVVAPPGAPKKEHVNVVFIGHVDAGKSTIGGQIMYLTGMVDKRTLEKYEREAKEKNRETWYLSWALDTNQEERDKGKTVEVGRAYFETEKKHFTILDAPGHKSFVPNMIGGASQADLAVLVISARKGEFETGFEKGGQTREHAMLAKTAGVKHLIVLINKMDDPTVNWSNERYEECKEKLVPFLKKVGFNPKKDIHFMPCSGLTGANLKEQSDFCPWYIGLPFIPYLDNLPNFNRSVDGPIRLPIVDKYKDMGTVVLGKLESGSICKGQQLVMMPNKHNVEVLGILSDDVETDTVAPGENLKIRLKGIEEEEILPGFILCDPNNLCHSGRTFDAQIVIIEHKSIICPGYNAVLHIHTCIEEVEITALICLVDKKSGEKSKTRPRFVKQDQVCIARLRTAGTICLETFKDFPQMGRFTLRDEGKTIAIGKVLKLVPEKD
Text: (§1) These drugs bind to cereblon and promote the degradation of novel (neomorphic) substrates.

[6] = 7-day oral dose range finding toxicity study in dogs; assay type: in vivo; settings: dog, up to 120 mg/kg/day, 7 days
[7] = tested on: ER+/HER2− locally advanced/metastatic breast cancer; test: FIH Study Part B (VERITAC): clinical benefit rate, PFS; assay type: in vivo, human
[8] = tested on: ER+/HER2− locally advanced/metastatic breast cancer; test: as above; assay type: in vivo, human; remark: listed apart in the source
Text: The primary endpoint was clinical benefit rate (CBR; rate of confirmed complete or partial response or stable disease ≥24 weeks).

T47D cells = test: Live-cell imaging proliferation, T47D; assay type: cell-based; settings: Homo sapiens, 144 h, up to 6 days
Text: Full growth of the cells over this time period is shown by extent of cell confluence with dimethyl sulfoxide (DMSO).

[9] = FIH Study Parts A and B combined: adverse events; assay type: in vivo, human
Text: Preliminary safety data from Part B (monotherapy dose expansion) is consistent with what has been observed in Part A (monotherapy dose escalation).

[10] = Plasma protein binding, human; assay type: in vitro ADME; settings: read-out: free fraction
[11] = pH effect on absorption with famotidine in fasted rats and dogs; assay type: in vivo; settings: spray-dried dispersion
progesterone receptor = progesterone receptor (Homo sapiens, UniProt P06401); test: Secondary pharmacodynamics binding, progesterone receptor; settings: in vitro
Sequence of progesterone receptor (P06401 whole entry, species assumed): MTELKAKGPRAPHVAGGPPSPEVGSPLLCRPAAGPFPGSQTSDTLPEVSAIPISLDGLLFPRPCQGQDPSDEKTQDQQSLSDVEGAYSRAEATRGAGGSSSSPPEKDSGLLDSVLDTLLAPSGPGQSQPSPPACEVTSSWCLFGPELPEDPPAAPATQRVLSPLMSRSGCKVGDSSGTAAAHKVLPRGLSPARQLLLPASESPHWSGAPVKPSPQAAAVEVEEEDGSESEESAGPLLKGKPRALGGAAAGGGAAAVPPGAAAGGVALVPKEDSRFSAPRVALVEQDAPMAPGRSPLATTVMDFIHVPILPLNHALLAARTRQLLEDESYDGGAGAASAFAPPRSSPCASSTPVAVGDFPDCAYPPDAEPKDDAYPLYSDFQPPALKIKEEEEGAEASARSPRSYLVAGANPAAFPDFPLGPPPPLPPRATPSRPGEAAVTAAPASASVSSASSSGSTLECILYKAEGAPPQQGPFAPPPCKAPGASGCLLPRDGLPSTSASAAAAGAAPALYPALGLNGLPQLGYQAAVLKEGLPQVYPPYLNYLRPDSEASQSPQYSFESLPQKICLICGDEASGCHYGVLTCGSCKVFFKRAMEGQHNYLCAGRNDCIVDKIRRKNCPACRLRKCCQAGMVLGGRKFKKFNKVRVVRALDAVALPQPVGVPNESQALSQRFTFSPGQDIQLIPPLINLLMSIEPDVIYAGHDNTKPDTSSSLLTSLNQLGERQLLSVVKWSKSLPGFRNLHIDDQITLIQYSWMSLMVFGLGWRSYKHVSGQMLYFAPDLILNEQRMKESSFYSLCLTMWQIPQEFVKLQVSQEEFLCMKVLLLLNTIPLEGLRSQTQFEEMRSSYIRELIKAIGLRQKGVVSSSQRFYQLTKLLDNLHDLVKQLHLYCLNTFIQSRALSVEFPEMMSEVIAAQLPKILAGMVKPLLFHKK

SALL4 = molecular target: T1, SALL4 (Homo sapiens, UniProt Q9UJQ4); test: Cereblon neomorphic substrate degradation, SALL4; assay type: cell-based
T1 construct: host or cells: two unnamed cell lines
T1 sequence (Q96SW2 whole entry partner, species assumed): as the sequence (Q96SW2 whole entry partner, species assumed) above
T1 sequence (Q16531 whole entry partner, species assumed): as the sequence (Q16531 whole entry partner, species assumed) above
T1 sequence (Q9UJQ4 whole entry, species assumed): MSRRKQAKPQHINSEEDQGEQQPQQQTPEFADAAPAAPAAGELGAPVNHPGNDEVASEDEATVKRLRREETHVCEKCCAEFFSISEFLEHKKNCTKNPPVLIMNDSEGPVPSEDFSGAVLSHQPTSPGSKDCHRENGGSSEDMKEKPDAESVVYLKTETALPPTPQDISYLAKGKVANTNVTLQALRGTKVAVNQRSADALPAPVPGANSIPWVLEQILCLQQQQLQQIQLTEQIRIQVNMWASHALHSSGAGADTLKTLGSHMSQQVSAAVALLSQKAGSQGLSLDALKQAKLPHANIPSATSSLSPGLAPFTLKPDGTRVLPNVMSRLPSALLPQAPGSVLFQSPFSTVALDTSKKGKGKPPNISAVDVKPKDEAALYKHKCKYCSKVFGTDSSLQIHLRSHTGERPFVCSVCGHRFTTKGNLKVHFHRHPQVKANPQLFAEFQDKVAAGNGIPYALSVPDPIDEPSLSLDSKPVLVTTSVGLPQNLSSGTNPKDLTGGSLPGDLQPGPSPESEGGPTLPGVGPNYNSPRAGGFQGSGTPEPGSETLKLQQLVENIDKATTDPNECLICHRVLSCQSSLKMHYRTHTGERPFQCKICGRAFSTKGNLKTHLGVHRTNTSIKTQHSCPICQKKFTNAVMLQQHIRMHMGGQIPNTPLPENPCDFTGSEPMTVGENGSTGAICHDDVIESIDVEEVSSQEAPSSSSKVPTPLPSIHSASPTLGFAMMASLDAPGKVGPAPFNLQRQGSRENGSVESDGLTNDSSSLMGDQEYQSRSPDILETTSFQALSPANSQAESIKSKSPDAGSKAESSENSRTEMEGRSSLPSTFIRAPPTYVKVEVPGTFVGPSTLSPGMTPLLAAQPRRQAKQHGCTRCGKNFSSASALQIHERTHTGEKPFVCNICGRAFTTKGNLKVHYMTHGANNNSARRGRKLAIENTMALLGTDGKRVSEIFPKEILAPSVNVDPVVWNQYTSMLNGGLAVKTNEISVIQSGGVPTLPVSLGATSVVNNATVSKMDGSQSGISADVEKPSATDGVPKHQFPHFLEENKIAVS
Text: as §1

[12] = in vivo
Text: TEAE's from participants in both studies have been combined and are described below.

Structure (SMILES): O=C1CC[C@H](N2Cc3cc(N4CCN(CC5CCN(c6ccc([C@@H]7c8ccc(O)cc8CC[C@@H]7c7ccccc7)cc6)CC5)CC4)ccc3C2=O)C(=O)N1 [Compound A, (S)-3-(5-(4-((1-(4-((1R,2S)-6-hydroxy-2-phenyl-1,2,3,4-tetrahydronaphthalen-1-yl)phenyl)piperidin-4-yl)methyl)piperazin-1-yl)-1-oxoisoindolin-2-yl)piperidine-2,6-dione]
- increase in AUC in fed dogs [1]: 3 fold
- bioavailability ([2]; mouse, dog, monkey, po, range across species): 27 to 65%
- half-life ([2]; mouse, dog, monkey, range across species): 126 to 492 min
- Vd ([2]; intravenous, read-out: VSS): 6 L/kg
- TRAEs of Grade 2 or higher ([3]; 200 mg, healthy participants): no TRAEs of Grade 2 or higher were reported
- tolerability ([3]; 200 mg, healthy participants): well-tolerated
- Grade 1 TEAEs ([3]; Fast/Fed cohort): 21.4%
- Grade 2 TEAEs ([3]; Fast/Fed cohort): 14.3%
- Grade 3 or higher TEAEs ([3]; Fast/Fed cohort): No participants reported Grade 3 or higher TEAEs
- TEAE ligament sprain ([3]; Fast/Fed cohort n=14): 14.3%
- TRAE pollakiuria ([3]; Fast/Fed cohort n=14): 7.1%
- Grade 1 TEAEs ([3]; PPI cohort): 47.1%
- Grade 2 TEAEs ([3]; PPI cohort): 5.9%
- Grade 3 or higher TEAEs ([3]; PPI cohort): No participants reported Grade 3 or higher TEAEs
- TRAEs nausea, headache, pruritus, each ([3]; PPI cohort): 5.9%
- TEAE Headache ([3]; PPI cohort n=17): 29.4%
- participants with at least 1 TRAE ([3]; PPI cohort n=17): 11.8%
- participants with TEAE leading to discontinuation ([3]; PPI cohort, due to COVID): One
- SAEs, SARs, deaths ([3]; all cohorts): No SAEs, SARs or deaths were reported
- participants with at least 1 TRAE ([3]; all cohorts): 3 of 47 participants
- participants with TEAEs ([3]; all cohorts, 200 mg): 15 of 47 participants
- TRAEs ([3]; rBA cohort n=16): No participants reported a TRAE
- participants with a TEAE (dizziness, Grade 1) ([3]; rBA cohort n=16): 6.3%
- fraction unbound at 1 μM [4]: 0.026
- turnover in liver microsomes and hepatocytes [5]: relatively low turnover
- degradation of GSPT1 (GSPT1): did not degrade
- tolerability [6]: well tolerated
- median progression-free survival ([7]; 200 mg QD, all evaluable, 95% CI 1.8-7.8): 3.5 months
- PFS ([7]; ITT (n=71)): 3.7 months
- CBR ([8]; 200 mg QD, WT PIK3CA n=20, 95% CI 19-64): 40.0%
- CBR ([8]; 200 mg QD, all evaluable n=35, Nov. 1, 2022, 95% CI 21-55): 37.1%
- CBR ([8]; 200 mg QD, mutant ESR1 n=19, Nov. 1, 2022, 95% CI 24-71): 47.4%
- CBR ([8]; 200 mg QD, mutant PIK3CA n=15, 95% CI 12-62): 33.3%
- CBR ([8]; ITT (n=71)): 38%
- CBR ([8]; ITT ESR1m (n=41)): 51.2%
- PFS ([8]; ITT ESR1m (n=41)): 5.7 months
- CBR ([8]; no prior fulvestrant or chemotherapy in metastatic setting (n=8)): 62.5%
- CBR ([8]; patients with WT ESR1 (n=25)): 20%
- GI50 (T47D cells): 1.7 nM
- patients with TEAEs ([9]; 143 of 154, as of 6 Jun 2023): 92.9%
- Any treatment-emergent AE, Any Grade ([9]; Part A + B, N=154): 143 (92.9) n (%)
- Any treatment-emergent AE, Grade 3+ ([9]; Part A + B, N=154): 40 (26.0) n (%)
- Any treatment-related AE, Any Grade ([9]; Part A + B, N=154): 114 (74.0) n (%)
- Any treatment-related AE, Grade 3+ ([9]; Part A + B, N=154): 12 (7.8) n (%)
- TEAE Anemia, Any Grade ([9]; Part A + B, N=154): 16 (10.4) n (%)
- TEAE Anemia, Grade 3+ ([9]; Part A + B, N=154): 2 (1.3) n (%)
- TEAE Arthralgia, Any Grade ([9]; Part A + B, N=154): 34 (22.1) n (%)
- TEAE Arthralgia, Grade 3+ ([9]; Part A + B, N=154): 2 (1.3) n (%)
- TEAE Aspartate aminotransferase increased, Any Grade ([9]; Part A + B, N=154): 21 (13.6) n (%)
- TEAE Aspartate aminotransferase increased, Grade 3+ ([9]; Part A + B, N=154): 3 (1.9) n (%)
- TEAE Back pain, Any Grade ([9]; Part A + B, N=154): 21 (13.6) n (%)
- TEAE Back pain, Grade 3+ ([9]; Part A + B, N=154): 2 (1.3) n (%)
- TEAE Constipation, Any Grade ([9]; Part A + B, N=154): 41 (26.6) n (%)
- TEAE Constipation, Grade 3+ ([9]; Part A + B, N=154): 0 n (%)
- TEAE Decreased appetite, Any Grade ([9]; Part A + B, N=154): 24 (15.6) n (%)
- TEAE Decreased appetite, Grade 3+ ([9]; Part A + B, N=154): 1 (0.6) n (%)
- TEAE Diarrhea, Any Grade ([9]; Part A + B, N=154): 19 (12.3) n (%)
- TEAE Diarrhea, Grade 3+ ([9]; Part A + B, N=154): 0 n (%)
- TEAE Fatigue, Any Grade ([9]; Part A + B, N=154): 62 (40.3) n (%)
- TEAE Fatigue, Grade 3+ ([9]; Part A + B, N=154): 2 (1.3) n (%)
- TEAE Headache, Any Grade ([9]; Part A + B, N=154): 25 (16.2) n (%)
- TEAE Headache, Grade 3+ ([9]; Part A + B, N=154): 1 (0.6) n (%)
- TEAE Hot flush, Any Grade ([9]; Part A + B, N=154): 24 (15.6) n (%)
- TEAE Hot flush, Grade 3+ ([9]; Part A + B, N=154): 0 n (%)
- TEAE Hyperglycemia, Any Grade ([9]; Part A + B, N=154): 16 (10.4) n (%)
- TEAE Hyperglycemia, Grade 3+ ([9]; Part A + B, N=154): 0 n (%)
- TEAE Nausea, Any Grade ([9]; Part A + B, N=154): 46 (29.9) n (%)
- TEAE Nausea, Grade 3+ ([9]; Part A + B, N=154): 1 (0.6) n (%)
- TEAE Pain in extremity, Any Grade ([9]; Part A + B, N=154): 17 (11.0) n (%)
- TEAE Pain in extremity, Grade 3+ ([9]; Part A + B, N=154): 0 n (%)
- TEAE Vomiting, Any Grade ([9]; Part A + B, N=154): 20 (13.0) n (%)
- TEAE Vomiting, Grade 3+ ([9]; Part A + B, N=154): 0 n (%)
- TRAE Arthralgia, Any Grade ([9]; Part A + B, N=154): 22 (14.3) n (%)
- TRAE Arthralgia, Grade 3+ ([9]; Part A + B, N=154): 0 n (%)
- TRAE Constipation, Any Grade ([9]; Part A + B, N=154): 16 (10.4) n (%)
- TRAE Constipation, Grade 3+ ([9]; Part A + B, N=154): 0 n (%)
- TRAE Fatigue, Any Grade ([9]; Part A + B, N=154): 48 (31.2) n (%)
- TRAE Fatigue, Grade 3+ ([9]; Part A + B, N=154): 1 (0.6) n (%)
- TRAE Hot flush, Any Grade ([9]; Part A + B, N=154): 20 (13.0) n (%)
- TRAE Hot flush, Grade 3+ ([9]; Part A + B, N=154): 0 n (%)
- TRAE Nausea, Any Grade ([9]; Part A + B, N=154): 36 (23.4) n (%)
- TRAE Nausea, Grade 3+ ([9]; Part A + B, N=154): 1 (0.6) n (%)
- TEAE Arthralgia ([9]; Parts A and B, N=154): 22.1%
- TEAE Aspartate aminotransferase increased ([9]; Parts A and B, N=154): 13.6%
- TEAE Back pain ([9]; Parts A and B, N=154): 13.6%
- TEAE Constipation ([9]; Parts A and B, N=154): 26.6%
- TEAE Decreased appetite ([9]; Parts A and B, N=154): 15.6%
- TEAE Diarrhea ([9]; Parts A and B, N=154): 12.3%
- TEAE Fatigue ([9]; Parts A and B, N=154): 40.3%
- TEAE Headache ([9]; Parts A and B, N=154): 16.2%
- TEAE Nausea ([9]; Parts A and B, N=154): 29.9%
- TEAE Pain in extremity ([9]; Parts A and B, N=154): 11.0%
- TEAE Vomiting ([9]; Parts A and B, N=154): 13.0%
- TEAE anemia ([9]; Parts A and B, N=154): 10.4%
- TEAE hot flush ([9]; Parts A and B, N=154): 15.6%
- TEAE hyperglycaemia ([9]; Parts A and B, N=154): 10.4%
- TRAE Arthralgia ([9]; Parts A and B, N=154): 14.3%
- TRAE Constipation ([9]; Parts A and B, N=154): 10.4%
- TRAE Fatigue ([9]; Parts A and B, N=154): 31.2%
- TRAE Nausea ([9]; Parts A and B, N=154): 23.4%
- TRAE hot flush ([9]; Parts A and B, N=154): 13.0%
- fraction unbound at 1 μM [10]: 0.124
- pH effect on absorption with famotidine [11]: lowered PK at neutral pH
- binding (progesterone receptor): bound
- degradation of SALL4 (SALL4; a different cell line): no SALL4 degradation
- degradation of SALL4 (SALL4; one cell line): some degradation activity
- deaths [12]: No deaths were reported
